Laboratory results taken from patent US10669272B2, “Substituted naphthyridinone compounds useful as T cell activators” (BRISTOL-MYERS SQUIBB COMPANY, priority 2018, dated 2020).
Like-named read-outs stand apart in the source and are kept apart here.

Assays:
human DGKα = target: T1, human DGKα (Homo sapiens, UniProt P23743); experiment: DGKα LIPGLO assay (extruded liposome substrate), in vitro DGK inhibition; type: biochemical; details: read-out: DGKa LIPGLO IC50
T1 construct: TVMV protease cleavage site (C); Hexa-His (C); made in house; host or cells: Sf9 insect cells (baculovirus, Bac-to-Bac)
T1 sequence (P23743 with tags, fused parts or gaps): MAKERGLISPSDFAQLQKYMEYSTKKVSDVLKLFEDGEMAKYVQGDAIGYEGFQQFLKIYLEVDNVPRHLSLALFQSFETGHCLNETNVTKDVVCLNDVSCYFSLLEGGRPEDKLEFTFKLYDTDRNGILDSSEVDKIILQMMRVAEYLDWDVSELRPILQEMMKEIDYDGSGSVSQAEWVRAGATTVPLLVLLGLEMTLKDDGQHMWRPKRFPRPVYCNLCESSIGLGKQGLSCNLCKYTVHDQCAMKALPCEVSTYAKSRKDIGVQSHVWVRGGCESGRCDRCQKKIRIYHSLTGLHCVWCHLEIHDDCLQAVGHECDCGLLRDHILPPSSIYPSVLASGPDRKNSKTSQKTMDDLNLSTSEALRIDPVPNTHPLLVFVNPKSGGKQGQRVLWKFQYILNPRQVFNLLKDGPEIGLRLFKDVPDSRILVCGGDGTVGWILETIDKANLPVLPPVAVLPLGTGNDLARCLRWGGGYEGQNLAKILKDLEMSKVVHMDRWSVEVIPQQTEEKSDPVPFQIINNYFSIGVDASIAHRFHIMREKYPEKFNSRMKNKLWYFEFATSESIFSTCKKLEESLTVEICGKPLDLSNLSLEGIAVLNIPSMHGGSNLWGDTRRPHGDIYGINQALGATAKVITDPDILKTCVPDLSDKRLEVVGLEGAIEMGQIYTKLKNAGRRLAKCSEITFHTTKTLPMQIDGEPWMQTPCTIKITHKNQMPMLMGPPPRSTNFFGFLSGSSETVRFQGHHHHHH

naïve human CD8 T cells = experiment: Human CD8 T cells IFN-γ assay; type: cell-based; details: read-out: HuCD8 INFG Normalized EC50;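 further: Naïve human CD8 T cells stimulated with plate-bound anti-CD3 and soluble anti-CD28, IFN-γ in supernatant quantified by AlphaLISA and converted to pg/mL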
Human venous whole blood = experiment: Human whole blood IFN-γ assay; type: cell-based; details: human whole blood, read-out: INFg Whole Blood Normalized Agonist EC50;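 further: blood from healthy donors exposed to compound for 1 h before stimulation with anti-CD3 and anti-CD28 at 1 µg/mL each, IFN-γ quantified in supernatant by AlphaLISA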
Description: Human Whole Blood IFN-γ Assay
Human venous whole blood (22.5 μL per well), obtained from healthy donors, was pre-treated with compounds for one hour at 37° C. in a humidified 95% air/5% CO2 incubator. The blood was stimulated with 2.5 μL anti-human CD3 and anti-CD28 mAb at a final concentration of 1 μg/mL each for 24 hours at 37° C. IFN-γ in the supernatants was measured using AlphLISA kit (Cat # AL217).

human DGKζ = target: T2, human DGKζ (Homo sapiens, UniProt Q13574); experiment: DGKζ LIPGLO assay (extruded liposome substrate), in vitro DGK inhibition; type: biochemical; details: read-out: DGKz LIPGLO IC50
T2 construct: TVMV protease cleavage site (C); Hexa-His (C); made in house; host or cells: Sf9 insect cells (baculovirus, Bac-to-Bac)
T2 sequence (Q13574 with tags, fused parts or gaps isoform Q13574-4): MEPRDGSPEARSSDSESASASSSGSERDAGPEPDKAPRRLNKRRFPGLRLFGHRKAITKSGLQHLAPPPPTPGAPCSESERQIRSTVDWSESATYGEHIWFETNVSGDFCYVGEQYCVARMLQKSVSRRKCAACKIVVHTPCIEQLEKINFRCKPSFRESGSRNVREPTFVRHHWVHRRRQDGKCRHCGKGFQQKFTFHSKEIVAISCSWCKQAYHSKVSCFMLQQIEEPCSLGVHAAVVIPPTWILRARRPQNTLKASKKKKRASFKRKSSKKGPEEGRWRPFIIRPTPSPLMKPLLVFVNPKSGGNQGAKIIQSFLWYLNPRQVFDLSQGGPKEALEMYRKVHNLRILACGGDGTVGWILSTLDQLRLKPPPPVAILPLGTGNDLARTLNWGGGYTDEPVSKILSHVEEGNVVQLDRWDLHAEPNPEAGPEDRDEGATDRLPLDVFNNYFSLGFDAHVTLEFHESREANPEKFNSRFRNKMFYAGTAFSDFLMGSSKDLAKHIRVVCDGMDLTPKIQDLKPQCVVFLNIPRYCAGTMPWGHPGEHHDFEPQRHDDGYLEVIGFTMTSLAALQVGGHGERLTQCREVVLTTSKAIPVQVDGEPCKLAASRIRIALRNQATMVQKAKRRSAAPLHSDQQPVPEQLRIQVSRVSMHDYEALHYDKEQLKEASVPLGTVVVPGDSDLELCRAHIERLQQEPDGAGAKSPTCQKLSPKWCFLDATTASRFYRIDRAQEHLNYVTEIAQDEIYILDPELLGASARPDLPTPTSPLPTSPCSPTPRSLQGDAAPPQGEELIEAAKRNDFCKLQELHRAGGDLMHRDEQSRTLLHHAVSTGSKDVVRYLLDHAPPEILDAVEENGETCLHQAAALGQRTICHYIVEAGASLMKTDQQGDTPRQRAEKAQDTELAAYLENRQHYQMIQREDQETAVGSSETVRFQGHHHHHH

[1] = Homo sapiens, T-cell, 20 h, naïve human CD8 T cells, anti-CD3 plus anti-CD28, 3 μM reference compound = 100% activation
[2] = Homo sapiens, 24 h, anti-CD3 plus anti-CD28, 24 hours, 3 μM reference compound = 100% activation
[3] = naïve human CD8 T cells, anti-CD3 plus anti-CD28, 3 μM reference compound = 100% activation
[4] = anti-CD3 plus anti-CD28, 24 hours, 3 μM reference compound = 100% activation
[5] = normalized to 3 μM reference compound with anti-CD3 plus anti-CD28 as 100% activation
[6] = Homo sapiens, 24 h, normalized to 3 μM reference compound with anti-CD3 plus anti-CD28 as 100% activation
[7] = Homo sapiens, T-cell, 20 h, normalized to 3 μM reference compound with anti-CD3 plus anti-CD28 as 100% activation

## C[C@@H]1CN(c2cc(=O)n(C)c3ccc(C#N)nc23)[C@@H](C)CN1C(c1ccc(F)cc1)c1nc(C2CC2)no1 (single isomer, unassigned) [Example 735]
Human DGKα; DGKα liposome (LIPGLO) assay
  IC50: 240 nM
naïve human CD8 T cells; [1]
  EC50: 0.74 nM
Human venous whole blood; [2]
  EC50: 140 nM
Human DGKζ; DGKζ liposome (LIPGLO) assay
  IC50: 61 nM

## C[C@@H]1CN(c2cc(=O)n(C)c3ccc(C#N)nc23)[C@@H](C)CN1C(c1ccc(F)cc1)c1nc(C2CC2)no1 (single isomer, unassigned) [Example 736]
Human DGKα; DGKα liposome (LIPGLO) assay
  IC50: 160 nM
naïve human CD8 T cells; [1]
  EC50: 25 nM
Human venous whole blood; [2]
  EC50: 150 nM
Human DGKζ; DGKζ liposome (LIPGLO) assay
  IC50: 480 nM

## C[C@@H]1CN(c2cc(=O)n(C)c3ccc(C#N)nc23)[C@@H](C)CN1C(c1ccc(F)cc1)c1nc(C2CCOCC2)no1 (single isomer, unassigned) [Example 739]
Human DGKα; DGKα liposome (LIPGLO) assay
  IC50: 130 nM
naïve human CD8 T cells; [1]
  EC50: 52 nM
Human venous whole blood; [2]
  EC50: 190 nM
Human DGKζ; DGKζ liposome (LIPGLO) assay
  IC50: 760 nM

## C[C@@H]1CN(c2cc(=O)n(C)c3ccc(C#N)nc23)[C@@H](C)CN1C(c1ccc(F)cc1)c1nc(-c2ccc(F)cc2)no1 (single isomer, unassigned) [Example 741]
Human DGKα; DGKα liposome (LIPGLO) assay
  IC50: 870 nM
naïve human CD8 T cells; [3]
  EC50: 3.7 nM
Human venous whole blood; [2]
  EC50: 210 nM
Human DGKζ; DGKζ liposome (LIPGLO) assay
  IC50: 1400 nM

## C[C@@H]1CN(c2cc(=O)n(C)c3ccc(C#N)nc23)[C@@H](C)CN1C(c1ccc(F)cc1)c1nc(-c2ccc(F)cc2)no1 (single isomer, unassigned) [Example 742]
Human DGKα; DGKα liposome (LIPGLO) assay
  IC50: 150 nM
naïve human CD8 T cells; [3]
  EC50: 1.5 nM
Human venous whole blood; [4]
  EC50: 140 nM
Human DGKζ; DGKζ liposome (LIPGLO) assay
  IC50: 790 nM

## C[C@@H]1CN(c2c(C#N)c(=O)n(C)c3ccc(C#N)nc23)CCN1C(c1ccc(F)cc1)c1ccc(C(F)(F)F)cn1 (single isomer, unassigned) [Example 896]
Human DGKα; DGKα liposome (LIPGLO) assay
  IC50: 190 nM
naïve human CD8 T cells; [1]
  EC50: 150 nM
Human venous whole blood; [4]
  EC50: 210 nM
Human DGKζ; DGKζ liposome (LIPGLO) assay
  IC50: 600 nM

## Cc1cccc(C(c2ccc(F)cc2)N2CCN(c3c(C#N)c(=O)n(C)c4ccc(C#N)nc34)C[C@H]2C)n1 (single isomer, unassigned) [Example 906]
Human DGKα; DGKα liposome (LIPGLO) assay
  IC50: 1000 nM
naïve human CD8 T cells; [1]
  EC50: 67 nM
Human venous whole blood; [4]
  EC50: 810 nM
Human DGKζ; DGKζ liposome (LIPGLO) assay
  IC50: 940 nM

## Cc1ccc(C(c2ccc(F)cc2)N2CCN(c3c(C#N)c(=O)n(C)c4ccc(C#N)nc34)C[C@H]2C)nc1 (single isomer, unassigned) [Example 915]
Human DGKα; DGKα liposome (LIPGLO) assay
  IC50: 740 nM
naïve human CD8 T cells; [1]
  EC50: 100 nM
Human venous whole blood; [4]
  EC50: 550 nM
Human DGKζ; DGKζ liposome (LIPGLO) assay
  IC50: 1300 nM

## C[C@@H]1CN(c2c(C#N)c(=O)n(C)c3ccc(C#N)nc23)CCN1C(c1ccc(F)cc1)c1ccccn1 (single isomer, unassigned) [Example 918]
Human DGKα; DGKα liposome (LIPGLO) assay
  IC50: 52 nM
naïve human CD8 T cells; [1]
  EC50: 130 nM
Human venous whole blood; [4]
  EC50: 380 nM
Human DGKζ; DGKζ liposome (LIPGLO) assay
  IC50: 380 nM

## C[C@@H]1CN(c2c(C#N)c(=O)n(C)c3ccc(C#N)nc23)CCN1C(c1ccc(F)cc1)c1cccc(C(F)(F)F)n1 (single isomer, unassigned) [Example 922]
Human DGKα; DGKα liposome (LIPGLO) assay
  IC50: 1500 nM
naïve human CD8 T cells; [1]
  EC50: 160 nM
Human venous whole blood; [4]
  EC50: 430 nM
Human DGKζ; DGKζ liposome (LIPGLO) assay
  IC50: 780 nM

## C[C@@H]1CN(c2c(C#N)c(=O)n(C)c3ccc(C#N)nc23)CCN1C(c1cccc(F)c1)c1ccc(F)cn1 (single isomer, unassigned) [Example 925]
Human DGKα; DGKα liposome (LIPGLO) assay
  IC50: 2500 nM
naïve human CD8 T cells; [1]
  EC50: 91 nM
Human venous whole blood; [4]
  EC50: 710 nM
Human DGKζ; DGKζ liposome (LIPGLO) assay
  IC50: 2800 nM

## CC[C@H]1CN(C(c2ccc(Cl)cc2)c2ccc(F)cn2)[C@H](CC)CN1c1cc(=O)n(C)c2ccc(C#N)nc12 (single isomer, unassigned) [Example 1033]
Human DGKα; liposome (LIPGLO) assay
  IC50: 98 nM
naïve human CD8 T cells; [5]
  EC50: 190 nM
Human venous whole blood; [6]
  EC50: 120 nM
Human DGKζ; liposome (LIPGLO) assay
  IC50: 59 nM

## CC[C@H]1CN(C(c2ccc(Cl)cc2)c2ccc(F)cn2)[C@H](CC)CN1c1cc(=O)n(C)c2ccc(C#N)nc12 (single isomer, unassigned) [Example 1034]
Human DGKα; liposome (LIPGLO) assay
  IC50: 64 nM
naïve human CD8 T cells; [5]
  EC50: 17 nM
Human venous whole blood; [5]
  EC50: 230 nM
Human DGKζ; liposome (LIPGLO) assay
  IC50: 340 nM

## CC[C@H]1CN(C(c2ccc(F)cc2)c2ncccc2F)[C@H](CC)CN1c1cc(=O)n(C)c2ccc(C#N)nc12 (single isomer, unassigned) [Example 1037]
Human DGKα; liposome (LIPGLO) assay
  IC50: 49 nM
naïve human CD8 T cells; [7]
  EC50: 14 nM
Human venous whole blood; [5]
  EC50: 130 nM
Human DGKζ; liposome (LIPGLO) assay
  IC50: 280 nM

## CC[C@H]1CN(C(c2ccc(F)cc2)c2ncccc2F)[C@H](CC)CN1c1cc(=O)n(C)c2ccc(C#N)nc12 (single isomer, unassigned) [Example 1038]
Human DGKα; liposome (LIPGLO) assay
  IC50: 77 nM
naïve human CD8 T cells; [5]
  EC50: 21 nM
Human venous whole blood; [5]
  EC50: 280 nM
Human DGKζ; liposome (LIPGLO) assay
  IC50: 850 nM

## CC[C@@H]1CN(c2cc(=O)n(C)c3ccc(C#N)nc23)[C@@H](C)CN1C(c1ccc(F)cc1)c1ccc(C#N)cc1 (single isomer, unassigned) [Example 1102]
Human DGKα; liposome (LIPGLO) assay
  IC50: 640 nM
naïve human CD8 T cells; [7]
  EC50: 31 nM
Human venous whole blood; [6]
  EC50: 220 nM
Human DGKζ; liposome (LIPGLO) assay
  IC50: 1400 nM

## CC[C@@H]1CN(c2cc(=O)n(C)c3ccc(C#N)nc23)[C@@H](C)CN1C(c1ccc(F)cc1)c1ccc(C#N)cc1 (single isomer, unassigned) [Example 1103]
Human DGKα; liposome (LIPGLO) assay
  IC50: 250 nM
naïve human CD8 T cells; [5]
  EC50: 21 nM
Human venous whole blood; [5]
  EC50: 260 nM
Human DGKζ; liposome (LIPGLO) assay
  IC50: 270 nM

## CC[C@H]1CN(C(C)c2ccc(F)cc2)[C@H](C)CN1c1cc(=O)n(C)c2ccc(C#N)nc12 (single isomer, unassigned) [Example 1135]
Human DGKα; liposome (LIPGLO) assay
  IC50: 18 nM
naïve human CD8 T cells; [7]
  EC50: 22 nM
Human venous whole blood; [5]
  EC50: 320 nM
Human DGKζ; liposome (LIPGLO) assay
  IC50: 360 nM

## CC(C)[C@H]1CN(c2cc(=O)n(C)c3ccc(C#N)nc23)CCN1C(c1ccc(F)cc1)c1ccc(F)cc1 [Example 10, (S)-8-(4-(bis(4-fluorophenyl)methyl)-3-isopropylpiperazin-1-yl)-5-methyl-6-oxo-5,6-dihydro-1,5-naphthyridine-2-carbonitrile]
Human DGKα; liposome (LIPGLO) assay
  IC50: 97000 nM
naïve human CD8 T cells; [7]
  EC50: 150 nM
Human venous whole blood; [6]
  EC50: 5000 nM
Human DGKζ; liposome (LIPGLO) assay
  IC50: 5100 nM

## CC(C)[C@H]1CN(c2c(C#N)c(=O)n(C)c3ccc(C#N)nc23)CCN1C(c1ccc(F)cc1)c1ccc(F)cc1 [Example 12, (S)-8-(4-(bis(4-fluorophenyl)methyl)-3-isopropylpiperazin-1-yl)-5-methyl-6-oxo-5,6-dihydro-1,5-naphthyridine-2,7-dicarbonitrile]
Human DGKα; liposome (LIPGLO) assay
  IC50: 2700 nM
naïve human CD8 T cells; [7]
  EC50: 10000 nM
Human venous whole blood; [6]
  EC50: 13000 nM
Human DGKζ; liposome (LIPGLO) assay
  IC50: 58000 nM

## C[C@@H]1CN(c2c(F)c(=O)n(C)c3ccc(C#N)nc23)CCN1C(c1ccc(Cl)cc1)c1ccc(Cl)cc1 [Example 34, (R)-8-(4-(bis(4-chlorophenyl)methyl)-3-methylpiperazin-1-yl)-7-fluoro-5-methyl-6-oxo-5,6-dihydro-1,5-naphthyridine-2-carbonitrile]
Human DGKα; liposome (LIPGLO) assay
  IC50: 690 nM
naïve human CD8 T cells; [7]
  EC50: 180 nM
Human venous whole blood; [6]
  EC50: 1300 nM
Human DGKζ; liposome (LIPGLO) assay
  IC50: 510 nM

## Cn1c(=O)cc(N2CCN(C(c3ccc(F)cc3)c3ccc(F)cc3)C(C#N)C2)c2nc(C#N)ccc21 (centres unmarked) [Example 43, 8-(4-(bis(4-fluorophenyl)methyl)-3-cyanopiperazin-1-yl)-5-methyl-6-oxo-5,6-dihydro-1,5-naphthyridine-2-carbonitrile]
Human DGKα; liposome (LIPGLO) assay
  IC50: 6200 nM
naïve human CD8 T cells; [7]
  EC50: 87 nM
Human venous whole blood; [6]
  EC50: 1200 nM
Human DGKζ; liposome (LIPGLO) assay
  IC50: 3100 nM

## COC(=O)C1CN(c2c(C#N)c(=O)n(C)c3ccc(Br)nc23)CCN1C(c1ccc(F)cc1)c1ccc(F)cc1 (centres unmarked) [Example 49, Methyl 1-(bis(4-fluorophenyl)methyl)-4-(6-bromo-3-cyano-1-methyl-2-oxo-1,2-dihydro-1,5-naphthyridin-4-yl)piperazine-2-carboxylate]
Human DGKα; liposome (LIPGLO) assay
  IC50: 25000 nM
naïve human CD8 T cells; [7]
  EC50: 490 nM
Human venous whole blood; [6]
  EC50: 6300 nM
Human DGKζ; liposome (LIPGLO) assay
  IC50: 8700 nM
